“Also recorded” adds a separate entry of the source.
Experiments:
Format in all cases: cell-based
Trichophyton rubrum = test: Anti-dermatophytic activity, agar dilution method (Sabouraud's dextrose agar); conditions: for Inhibition of growth at all tested concentrations: concentrations 0.15%, 0.31%, 0.625%, 1.25%, 2.50% and 5.0%; for Growth of test organism (Negative/Growth): DMSO solvent, SDA, trials TR1-TR3
Method: (§1) The anti-dermatophyte efficacy testing for greater than 99% pure form of 1,7-Bis(4-hydroxy-3-methoxyphenyl)-3,5-heptanedione (coded TP) in comparison to the corresponding 95% pure form (coded SW) was done by the agar dilution method. The medium used was Sabouraud's dextrose agar (SDA). Doubling concentration ranges from about 0.15% to about 5% of TP and […] was prepared in 5 ml Dimethylsulfoxide and added to 95 ml of SDA to form a total volume of 100 ml of the medium. The test organisms Trichophyton rubrum, Microsporum gypseum and Epidermophyton floccosum encoded as TR, MG and EF were inoculated in biosafety level 2 standards into the media comprising test compounds in the specified concentration ranges. Triplicate experiments were set up for each of the three fungi for each concentration of the test compounds to ensure reproducibility of results. DMSO and SDA controls were also included in triplicates for the test.
(§2) The test results are represented as Table I (FIG. 1, FIG. 2 and FIG. 3). The table may be read as follows. For example, TPTR1 represents growth of Trichophyton rubrum in greater than 99% pure form of 1,7-Bis (4-hydroxy-3-methoxyphenyl)-3,5-heptanedione in the first test. Similarly duplicate and triplicate testing are represented as TPTR2 and TPTR3.

Epidermophyton floccosum = test: as above; conditions: for Inhibition of growth at all tested concentrations: concentrations 0.15%, 0.31%, 0.625%, 1.25%, 2.50% and 5.0%; for Growth of test organism (Negative/Growth): DMSO solvent, SDA, trials EF1-EF3
Method: as §1, §2

Microsporum gypseum = test: as above; conditions: for Inhibition of growth at all tested concentrations: concentrations 0.15%, 0.31%, 0.625%, 1.25%, 2.50% and 5.0%; for Growth of test organism (Negative/Growth): DMSO solvent, SDA, trials MG1-MG3
Method: as §1, §2

[1] = system: Fusarium oxysporum (mycotoxin producing fungus); test: Activity against Fusarium oxysporum: counts over 28 days; conditions: inoculation level 1 × 10^7 CFU/g
[2] = system: Candida albicans NCIM 3471 (yeast); test: Activity against Candida species: colony counts over 28 days
Malassezia furfur = test: Antifungal efficacy, agar dilution method (Sabourauds Dextrose Agar with an overlay of coconut oil); conditions: for Growth of test organism (Negative/Growth): DMSO solvent, trials MF1-MF3
[3] = listed as greater than 99% pure form of 1,7-Bis(4-hydroxy-3-methoxyphenyl)-3,5-heptanedion
[4] = test interval 7 days, listed as 1,7-bis(4-hydroxy-3-methoxyphenyl)-3,5-heptanedione (>99% purity)
[5] = test interval 14 days, listed as 1,7-bis(4-hydroxy-3-methoxyphenyl)-3,5-heptanedione (>99% purity)
[6] = test interval 21 days, listed as 1,7-bis(4-hydroxy-3-methoxyphenyl)-3,5-heptanedione (>99% purity)
[7] = test interval 28 days, listed as 1,7-bis(4-hydroxy-3-methoxyphenyl)-3,5-heptanedione (>99% purity)
[8] = test interval 28 days, listed as greater than 99% pure form of 1,7-bis(4-hydroxy-3-methoxyphenyl)-3,5-heptanedion
[9] = final concentration 0.15%, listed as 95% pure form of 1,7-Bis(4-hydroxy-3-methoxyphenyl)-3,5-heptanedione
[10] = test interval 7 days, listed as 1,7-bis(4-hydroxy-3-methoxyphenyl)-3,5-heptanedione (about 95% purity)
[11] = test interval 14 days, listed as 1,7-bis(4-hydroxy-3-methoxyphenyl)-3,5-heptanedione (about 95% purity)
[12] = test interval 21 days, listed as 1,7-bis(4-hydroxy-3-methoxyphenyl)-3,5-heptanedione (about 95% purity)
[13] = test interval 28 days, listed as 1,7-bis(4-hydroxy-3-methoxyphenyl)-3,5-heptanedione (about 95% purity)

COc1cc(CCC(=O)CC(=O)CCc2ccc(O)c(OC)c2)ccc1O [TP, 1,7-Bis(4-hydroxy-3-methoxyphenyl)-3,5-heptanedione]
Inhibition of growth at all tested concentrations (Trichophyton rubrum): inhibits the growth
Inhibition of growth at all tested concentrations (Trichophyton rubrum; [3]): completely inhibiting the growth
Growth of test organism (Negative/Growth) (Trichophyton rubrum; final concentration 0.15%): Negative
Growth of test organism (Negative/Growth) (Trichophyton rubrum; final concentration 0.31%): Negative
Growth of test organism (Negative/Growth) (Trichophyton rubrum; final concentration 0.625%): Negative
Growth of test organism (Negative/Growth) (Trichophyton rubrum; final concentration 1.25%): Negative
Growth of test organism (Negative/Growth) (Trichophyton rubrum; final concentration 2.5%): Negative
Growth of test organism (Negative/Growth) (Trichophyton rubrum; final concentration 5%): Negative
Inhibition of growth at all tested concentrations (Epidermophyton floccosum): inhibits the growth
Inhibition of growth at all tested concentrations (Epidermophyton floccosum; [3]): completely inhibiting the growth
Growth of test organism (Negative/Growth) (Epidermophyton floccosum; final concentration 0.15%): Negative
Growth of test organism (Negative/Growth) (Epidermophyton floccosum; final concentration 0.31%): Negative
Growth of test organism (Negative/Growth) (Epidermophyton floccosum; final concentration 0.625%): Negative
Growth of test organism (Negative/Growth) (Epidermophyton floccosum; final concentration 1.25%): Negative
Growth of test organism (Negative/Growth) (Epidermophyton floccosum; final concentration 2.5%): Negative
Growth of test organism (Negative/Growth) (Epidermophyton floccosum; final concentration 5%): Negative
Inhibition of growth at all tested concentrations (Microsporum gypseum): inhibits the growth
Inhibition of growth at all tested concentrations (Microsporum gypseum; [3]): completely inhibiting the growth
Growth of test organism (Negative/Growth) (Microsporum gypseum; final concentration 0.15%): Negative
Growth of test organism (Negative/Growth) (Microsporum gypseum; final concentration 0.31%): Negative
Growth of test organism (Negative/Growth) (Microsporum gypseum; final concentration 0.625%): Negative
Growth of test organism (Negative/Growth) (Microsporum gypseum; final concentration 1.25%): Negative
Growth of test organism (Negative/Growth) (Microsporum gypseum; final concentration 2.5%): Negative
Growth of test organism (Negative/Growth) (Microsporum gypseum; final concentration 5%): Negative
Day 0 count [1]: 1 × 10^7 CFU/g
Day 7 count [1]: <10 CFU/g
Day 14 count [1]: <10 CFU/g
Day 28 Count [1]: <10 CFU/g
Concentration of organism ([2]; test interval 0 days, listed as 1,7-bis(4-hydroxy-3-methoxyphenyl)-3,5-heptanedione (>99% purity)): 14.6 × 10^5 cfu/ml
Concentration of organism [2, 4]: 72 × 10^5 cfu/ml
Log Reduction [2, 4]: 0.5
Percent Reduction [2, 4]: 50.6%
Concentration of organism [2, 5]: 20 × 10^8 cfu/ml
Log Reduction [2, 5]: 2.8
Percent Reduction [2, 5]: 99.8%
Concentration of organism [2, 6]: 75 × 10^2 cfu/ml
Log Reduction [2, 6]: 3.4
Percent Reduction [2, 6]: 99.94%
Concentration of organism [2, 7]: <130 cfu/ml
Log Reduction [2, 7]: 5.3
Percent Reduction [2, 7]: 99.99%
Concentration of organism [2, 8]: less than 100 cfu/ml
Percent Reduction [2, 8]: 99.99%
Activity against Malassezia furfur at all tested concentration, in contrast to the 95% pure form (Malassezia furfur; 0.15% to 5%): enhanced activity
Growth of test organism (Negative/Growth) (Malassezia furfur; final concentration 0.15%): Negative
Growth of test organism (Negative/Growth) (Malassezia furfur; final concentration 0.31%): Negative
Growth of test organism (Negative/Growth) (Malassezia furfur; final concentration 0.625%): Negative
Growth of test organism (Negative/Growth) (Malassezia furfur; final concentration 1.25%): Negative
Growth of test organism (Negative/Growth) (Malassezia furfur; final concentration 2.5%): Negative
Growth of test organism (Negative/Growth) (Malassezia furfur; final concentration 5%): Negative

COc1cc(CCC(=O)CC(=O)CCc2ccc(O)c(OC)c2)ccc1O [SW, 1,7-Bis(4-hydroxy-3-methoxyphenyl)-3,5-heptanedione]
Growth of test organism (Negative/Growth) (Trichophyton rubrum; final concentration 0.15%): tolerated by the fungi; also recorded: Growth
Growth of test organism (Negative/Growth) (Trichophyton rubrum; [9]): grow
Growth of test organism (Negative/Growth) (Trichophyton rubrum; final concentration 0.31%): Negative
Growth of test organism (Negative/Growth) (Trichophyton rubrum; final concentration 0.625%): Negative
Growth of test organism (Negative/Growth) (Trichophyton rubrum; final concentration 1.25%): Negative
Growth of test organism (Negative/Growth) (Trichophyton rubrum; final concentration 2.5%): Negative
Growth of test organism (Negative/Growth) (Trichophyton rubrum; final concentration 5%): Negative
Growth of test organism (Negative/Growth) (Epidermophyton floccosum; final concentration 0.15%): able to grow; also recorded: Growth
Growth of test organism (Negative/Growth) (Epidermophyton floccosum; [9]): grow
Growth of test organism (Negative/Growth) (Epidermophyton floccosum; final concentration 0.31%): able to grow; also recorded: Growth
Growth of test organism (Negative/Growth) (Epidermophyton floccosum; final concentration 0.31%, listed as 95% pure form of 1,7-Bis(4-hydroxy-3-methoxyphenyl)-3,5-heptanedione): tolerant
Growth of test organism (Negative/Growth) (Epidermophyton floccosum; final concentration 0.625%): Negative
Growth of test organism (Negative/Growth) (Epidermophyton floccosum; final concentration 1.25%): Negative
Growth of test organism (Negative/Growth) (Epidermophyton floccosum; final concentration 2.5%): Negative
Growth of test organism (Negative/Growth) (Epidermophyton floccosum; final concentration 5%): Negative
Growth of test organism (Negative/Growth) (Microsporum gypseum; final concentration 0.15%): tolerated by the fungi; also recorded: Growth
Growth of test organism (Negative/Growth) (Microsporum gypseum; [9]): grow
Growth of test organism (Negative/Growth) (Microsporum gypseum; final concentration 0.31%): Negative
Growth of test organism (Negative/Growth) (Microsporum gypseum; final concentration 0.625%): Negative
Growth of test organism (Negative/Growth) (Microsporum gypseum; final concentration 1.25%): Negative
Growth of test organism (Negative/Growth) (Microsporum gypseum; final concentration 2.5%): Negative
Growth of test organism (Negative/Growth) (Microsporum gypseum; final concentration 5%): Negative
Concentration of organism ([2]; test interval 0 days, listed as 1,7-bis(4-hydroxy-3-methoxyphenyl)-3,5-heptanedione (about 95% purity)): 25 × 10^5 cfu/ml
Concentration of organism [2, 10]: 19.7 × 10^5 cfu/ml
Log Reduction [2, 10]: 0.2
Percent Reduction [2, 10]: 21.2%
Concentration of organism [2, 11]: 16 × 10^4 cfu/ml
Log Reduction [2, 11]: 2.3
Percent Reduction [2, 11]: 99.3%
Concentration of organism [2, 12]: 53 × 10^5 cfu/ml
Log Reduction [2, 12]: 0.7
Percent Reduction [2, 12]: 78.6%
Concentration of organism [2, 13]: 31.5 × 10^5 cfu/ml
Log Reduction [2, 13]: 0.8
Percent Reduction [2, 13]: 87.4%
Concentration that inhibits the growth of the fungus (Malassezia furfur; agar dilution): ≥ 1.25%
Growth of test organism (Negative/Growth) (Malassezia furfur; final concentration 0.15%): Growth
Growth of test organism (Negative/Growth) (Malassezia furfur; final concentration 0.31%): Growth
Growth of test organism (Negative/Growth) (Malassezia furfur; final concentration 0.625%): Growth
Growth of test organism (Negative/Growth) (Malassezia furfur; final concentration 1.25%): Negative; also recorded: Growth
Growth of test organism (Negative/Growth) (Malassezia furfur; final concentration 2.5%): Negative
Growth of test organism (Negative/Growth) (Malassezia furfur; final concentration 5%): Negative
